Laboratory results from patent US7723370B2, “1, 2-diaryl pyrazoles useful as analgetic and antiinflammatory agents” (Richter Gedeon Vegyeszeti Gyar RT., priority 2005, dated 2010).
Values joined by “and” are separate entries in the source; they are usually repeats but may differ in a detail not shown here. Equal entries are not always repeated. Marks after values point to notes of the source that are not given here.

Assays:
Type in all cases: in vivo, rat
[1] = system: carrageenan induced acute hyperalgesia; assay: Carrageenan induced acute hyperalgesia in rats (Randall-Selitto model)
Procedure: (§1) Oedema (inflammation) was induced by subcutaneous injection of carrageenan (CARR) suspension in the subplantar region of the right hind paw of male Wistar rats, weighted 140-190 g (n=8-12 animal/group). The nociceptive thresholds of the inflamed hind paw after painful mechanical stimuli were measured with analgesimeter (Ugo Basile, type: 37215, Italy). The apparatus is suitable for the measuring of the extent and the latency of the pain reaction threshold of the sensitized paw after painful stimuli. The analgesics elevate the low pain reaction threshold of inflamed paw and the degree of its antinociceptive effect is expressed in reversal %.
(§2) An increasing pressure was applied to the paw and the withdrawal threshold was determined as the first sign (squeaking and/or struggling) of pain response. The pressure threshold was shown in grams. The average value of the hind paw withdrawal obtained with untreated right paw was regarded as the basal hind paw withdrawal (average 80-110 grams.) After determining the baseline threshold the animals received carrageenan injection that produced an intense inflammation associated with hyperalgesia. The mechanical threshold was determined at various times to establish the magnitude and duration of the hyperalgesia. The maximum reduction in threshold was measured 2-3 h after injection (the pain threshold of the inflamed paw is 20-30 g, which was decreased by 65-80% in comparing to the basic value).
(§3) Acute hvneralgesia model: the animals were treated with the test compounds and celecoxib (10 and 30 mg/kg p.o.) one hour after CARR treatment (100 μl 2% suspension). Pain threshold was measured at 2 and 4 hours after the treatment. Chronic hyperalgesia model: extended inflammation and decreased pain threshold were induced with higher dose of CARR. Pain threshold of inflamed paw was measured 24 hours after CARR treatment (150 μl, 2% suspension) then test compound and Celecoxib (30 mg/kg p.o.) were given to the animals. Pain threshold of treated paw was measured from 30 minutes till 3 hours after treatment.
(§4) Control groups in both models after CARR treatment were treated with vehicle p.o. at the same intervals as the test compounds. In both models the analgesic effect of the compounds was expressed in the reversal (%) of the decrease of the pain threshold. Reversal %=[mean of treated groupTxh(g)−treated groupT0h(g)]/[basic mean of treated groupT-1h(g)−treated groupT0h(g)] • T−1 h=mean of the pain threshold of paw before CARR treatment in acute model (g) • T0h=mean of the pain threshold before treatment 1 hour after CARR treatment in acute model (g) • T×h=pain threshold after CARR treatment in the measuring times (1 h, 2 h, 3 h) in acute model (g)

[2] = system: acetic acid induced chronic gastric ulcer; assay: Acetic acid induced chronic gastric ulcer in rats; conditions: for Area of ulcer (mm^2) / Change of bodyweight (g) + (increase) − (decrease): 30 mg/kg p.o. for seven days; for Recovery of acetic acid induced ulcer: p.o. for seven days
Procedure: In our experiments the method […] of Okabe et al was used. Male Wistar rats of 150-170 g were narcotize part of the stomach.
The test compound was given p.o. on the fifth day after the operation for seven days. The animals were euthanized with ether after 24 hours of the last dose and the abdomen was macroscopically examined (exravasation, accretion), the stomach was excised and the diameters of ulcers were measured.

[3] = system: myocardial ischemia-reperfusion induced injury; assay: Myocardial ischemia-reperfusion induced injury in rats (cardioprotective effect); conditions: 30 mg/kg i.p. 30 minutes before occlusion; control group 90%
Procedure: Effect of compound of Example 5 and celecoxib was determined in experimental myocardial ischemia-reperfusion induced injury.
Myocardial infarction was produced in male, SPRD CFY rats of 300-360 g by surgical occlusion of left anterior descending coronary artery. Briefly, the animals were anesthetized with pentobarbital (60 mg/kg i.p.) and the chest was opened, the left coronary artery was ligated for 6 minutes followed by reperfusion. Test compounds were administered i.p. in 30 and 60 mg/kg dose 30 minutes before occlusion of the coronary artery. The control group was treated with vehicle (5% TWEEN 80 in isotonic NaCl, […]).

[4] = system: carrageenan induced paw oedema; assay: Inhibition of carrageenan induced oedema in rats; conditions: for ED30: p.o.
Procedure: The treated paw was immersed up to the tibio-tarsal articulation into the chamber and the volume of displaced liquid was determined as the degree of the inflammation. Degree of inflammation (ml)=volume after the CARR treatment (ml)−volume before the CARR treatment (ml)
The degree of the anti-inflammatory effect of the treated group (which obtained test agent) was compared to that of the control group (which obtained only vehicle). The test compound and the vehicle were given orally by blunt-ended needle cannula one hour before the CARR treatment. The volume of the treated paw was measured at 3 and 5 hours after the CARR treatment and the change in the degree of inflammation in % was calculated according to the following formula: Anti-inflammatory activity %=100×[control group (ml)−treated group (ml)/control group (ml)]
[…] Anti-inflammatory activity of the compounds was determined in % at 4 and 6 hours after p.o. treatment and ED30 was calculated.

[5] = system: carrageenan induced chronic hyperalgesia; assay: Carrageenan induced chronic hyperalgesia model in rats (Randall-Selitto)
[6] = system: carrageenan induced chronic hyperalgesia; assay: as above; remark: listed apart in the source
Procedure: as §1, §2, §3, §4

[7] = system: alcohol induced mucosa injury; assay: Gastric lesions induced by acidified alcohol in rats; conditions: for Ulcer index: 40 minutes before ethanol+HCl, n = 10
Procedure: Male Wistar rats weighing 140-160 g were treated p.o. with a 1:0.02 mixture of dry ethanol and concentrated HCl (0.5 ml) in order to induce gastric lesions. One hour later the animals were euthanized with ether and the stomach excised along its greater curvature, the mucosa was examined for the presence of lesions.
Severity of lesions: • 1: petechiae or erosion with length of 1 mm • 2: erosion with length between 2 and 3 mm • 3: erosion with length between 3 and 4 mm • 4: erosion with length between 4 and 5 mm
If the lesion was longer than 5 mm, it was scored 4 point as many times as the total length of the lesion divisible by four and the rest of the length was evaluated according to the above scale. The degree of injury of mucosa was characterized by ulcer index. Ulcer index (severity of lesion×number of lesion) was calculated for every animal and the degree of injury of mucosa in the groups of tested animals was characterized by the mean of ulcer index of different groups of animals.
Test compounds were given p.o. 40 minutes before the ethanol+HCl treatment

[8] = 3 mg/kg p.o., 4 hours after treatment
[9] = 3 mg/kg p.o., 6 hours after treatment
[10] = 10 mg/kg p.o., 4 hours after treatment
[11] = 10 mg/kg p.o., 6 hours after treatment
[12] = 30 mg/kg p.o., 4 hours after treatment
[13] = 30 mg/kg p.o., 6 hours after treatment
[14] = chronic model, 30 mg/kg p.o., 30 min
[15] = chronic model, 30 mg/kg p.o., 1 hour
[16] = chronic model, 30 mg/kg p.o., 2 hour
[17] = chronic model, 30 mg/kg p.o., 3 hour
[18] = inflammation induced chronic hyperalgesia model

Compound	Analgesic effect (reversal %) after p.o. treatment ([1]; 10 mg/kg p.o., 1 hour)	Analgesic effect (reversal %) after p.o. treatment ([1]; 10 mg/kg p.o., 2 hour)	Analgesic effect (reversal %) after p.o. treatment ([1]; 10 mg/kg p.o., 3 hour)	Analgesic effect (reversal %) after p.o. treatment ([1]; 30 mg/kg p.o., 1 hour)	Analgesic effect (reversal %) after p.o. treatment ([1]; 30 mg/kg p.o., 2 hour)	Analgesic effect (reversal %) after p.o. treatment ([1]; 30 mg/kg p.o., 3 hour)	Area of ulcer (mm^2) [2]	Change of bodyweight (g) + (increase) − (decrease) [2]	Recovery of acetic acid induced ulcer [2]	Inhibiton of carrageenan induced edema % [4, 8]	Inhibiton of carrageenan induced edema % [4, 9]	Inhibiton of carrageenan induced edema % [4, 10]	Inhibiton of carrageenan induced edema % [4, 11]	Inhibiton of carrageenan induced edema % [4, 12]	Inhibiton of carrageenan induced edema % [4, 13]	ED30 ([4]; 4 hours after treatment)	ED30 ([4]; 6 hours after treatment)	Analgesic effect (reversal %) after p.o. treatment ([5]; 10 mg/kg p.o., 30 min)	Analgesic effect (reversal %) after p.o. treatment ([5]; 10 mg/kg p.o., 1 hour)	Analgesic effect (reversal %) after p.o. treatment ([5]; 10 mg/kg p.o., 2 hour)	further results
Cc1ccc(-c2cc(C(F)(F)F)nn2-c2ccc(S(=O)(=O)NOC(C)C(=O)O)cc2)cc1 (racemic) [Example 5, (R,S)-2-[4-(5-p-methylphenyl-3-trifluoromethyl-pyrazol-1-yl)-benzensulfonylamino-oxy]-propionic acid]	24%	30%	15%	89%	59%	35%	2.4 ± 0.7 mm^2	+43 ± 5 g	did not influence it	21 ± 3%	20 ± 3%	40 ± 4%	34 ± 5%	49 ± 5%	40 ± 4%	5.7 mg/kg	8.4 mg/kg	23%	22%	28%	occurrence of serious, not mortal ventricular fibrillation during reperfusion [3]: 60%; anti-inflammatory activity compared with celecoxib ([4]; CARR induced oedema test): significantly (p<0.05) higher; Analgesic effect (reversal %) after p.o. treatment ([5]; 10 mg/kg p.o., 3 hour): 14%; Analgesic effect (reversal %) after p.o. treatment ([5]; 10 mg/kg p.o., 4 hour): 11%; Analgesic effect (reversal %) after p.o. treatment ([5]; 30 mg/kg p.o., 4 hour): 19%; Analgesic effect (reversal %) after p.o. treatment [6, 14]: 42%; Analgesic effect (reversal %) after p.o. treatment [6, 15]: 54%; Analgesic effect (reversal %) after p.o. treatment [6, 16]: 34%; Analgesic effect (reversal %) after p.o. treatment [6, 17]: 19%; analgesic effect [6, 18]: significant analgesic effect (p<0.01); duration of action compared with the reference compound [6, 18]: several hours longer; Ulcer index ([7]; 15 mg/kg p.o.): 43.0 ± 4.4; Ulcer index ([7]; 30 mg/kg p.o.): 35.0 ± 4.4; Ulcer index ([7]; 60 mg/kg p.o.): 15.8 ± 2.8
Cc1ccc(-c2cc(C(F)(F)F)nn2-c2ccc(S(N)(=O)=O)cc2)cc1 [Celecoxib, reference compound]	0%	0%	0%	24%	3%	0%	8.2 ± 2.0* mm^2	+32 ± 4 g	inhibited significantly	16 ± 3%	12 ± 4%	24 ± 4%	18 ± 2%	32 ± 5%	26 ± 4%	23 mg/kg and 23.0 mg/kg	>30 mg/kg	24%	17%	0%	analgesic effect, reversal ([1]; 30 mg/kg p.o., time not stated): 24%; anti-inflammatory activity as compared to the control group ([4]; 6 hours after the treatment): less than 30%; Analgesic effect (reversal %) after p.o. treatment ([5]; 30 mg/kg p.o., 4 hour): 20%; Analgesic effect (reversal %) after p.o. treatment [6, 14]: 54%; Analgesic effect (reversal %) after p.o. treatment [6, 15]: 34%; Analgesic effect (reversal %) after p.o. treatment [6, 16]: 34%; Analgesic effect (reversal %) after p.o. treatment [6, 17]: 26%; analgesic effect, reversal ([6]; chronic model, 30 mg/kg p.o., time not stated): 54%; Ulcer index ([7]; 15 mg/kg p.o.): 80.6 ± 2.3; Ulcer index ([7]; 30 mg/kg p.o.): 49.4 ± 4.5; Ulcer index ([7]; 60 mg/kg p.o.): 44.4 ± 6.4; effect on alcohol induced mucosa injury ([7]; p.o.): inhibited the alcohol induced mucosa injury
